Laboratory results published in patent US20230038883A1, “SPECIFIC HOST FACTOR OF HEPATITIS B VIRUS INFECTION, AND USE THEREOF” (priority 2020, published 2023).

Target: T1, SCARF2 EGF4-6 proteins (Homo sapiens, UniProt Q96GP6)
T1 construct: Precision (protease site) tag (internal); human Fc tag (IgG1) (C); made in house; host or cells: 293F cells (pCAGGs vector), purified with Protein A beads
T1 sequence (Q96GP6 183-270): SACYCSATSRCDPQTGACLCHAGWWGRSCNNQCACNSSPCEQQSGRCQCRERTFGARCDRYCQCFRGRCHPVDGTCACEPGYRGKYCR
Test: immunoprecipitation of biotin labeled preS1 polypeptides with SCARF2 EGF4-6
Format: binding
Source text: Compared with SVPs, the virus particles were rich in L protein, and the main functional segment of L protein was the preS1 segment; it was therefore speculated that the SCARF2 EGF4-6 proteins interact with the preS1 segment of the L protein of the virus. […] The C-terminus of each of the synthesized peptides was biotin labeled.

CC[C@H](C)[C@H](NC(=O)CNC(=O)[C@H](CCC(N)=O)NC(=O)[C@H](C)NC(=O)[C@@H](N)CCC(N)=O)C(=O)N[C@@H](CC(C)C)C(=O)N[C@@H](CCC(N)=O)C(=O)N[C@H](C(=O)N[C@@H](CC(C)C)C(=O)N1CCC[C@H]1C(=O)N[C@@H](C)C(=O)N[C@@H](CC(N)=O)C(=O)N1CCC[C@H]1C(=O)N1CCC[C@H]1C(=O)N1CCC[C@H]1C(=O)N[C@@H](C)C(=O)N[C@@H](CO)C(=O)N[C@H](C(=O)N[C@@H](CC(N)=O)C(=O)N[C@@H](CCCNC(=N)N)C(=O)N[C@@H](CCC(N)=O)C(=O)N[C@@H](CO)C(=O)NCC(=O)N[C@@H](CCCNC(=N)N)C(=O)N[C@@H](CCC(N)=O)C(=O)N1CCC[C@H]1C(=O)N[C@H](C(=O)N1CCC[C@H]1C(=O)N[C@@H](CC(C)C)C(=O)N[C@@H](CO)C(=O)N1CCC[C@H]1C(=O)N1CCC[C@H]1C(=O)N[C@@H](CC(C)C)C(=O)N[C@@H](CCCNC(=N)N)C(=O)N[C@@H](CC(N)=O)C(=O)N[C@H](C(=O)N[C@@H](Cc1c[nH]cn1)C(=O)N1CCC[C@H]1C(=O)N[C@@H](CCC(N)=O)C(=O)N[C@@H](C)C(=O)O)[C@@H](C)O)[C@@H](C)O)[C@@H](C)O)[C@@H](C)O [peptide^69-108]
binding to SCARF2 EGF4-6 proteins: specifically bound
